# From US20140378454A1, “NOVEL METHODS” (XSPRAY MICROPARTICLES AB, priority 2012, published 2014)
# Structures can show the parent of a compound that is named as a salt.
# Columns and labels:
# Assay type in all cases: physicochemical
# [1] = Dissolution rate measurement in sink conditions, flow through cell system, FaSSIF, 37° C.; conditions: sink condition in FaSSIF, initial slope of accumulated % solubilized vs time, 0 to 10 minutes
# Description: The temperature of the apparatus was set to 37° C. The amount of powder added into the cell depends on drug load of the powder: The exact amount of powder was calculated from results obtained from drug load analysis of the powders.
# Typically, 3.5 to 7 mg PKI was added into the flow through cell and a flow rate between 8 and 16 ml medium/min (preferably about 8 ml medium/min) was pumped through the powder. One ml samples of the medium passing through the cell were collected at predetermined times. […] Samples were taken after 0, 0.5, 1, 1.5, 2, 3, 4, 5, 6, 7, 8, 9, 10, 15, 20, 25, 30, 35 and 40 min from the moment the medium comes out from the flow through cell. The accumulated % solubilized of the amount of active substance added into the flow through cell was calculated and plotted against time (min). The initial slope (“initial dissolution rate”) of the graph was estimated, as measured during 0 to 10 minutes, and taken as the dissolution rate of the material in sink condition at 37° C. in the given dissolution medium.
# [2] = Dissolution measurement assay (apparent solubility) in FaSSIF, pH 6.5; parameters: AUC/90 min / AUC/80 min: concentration or dose not given beside the values; conditions: for AUC/90 min Mg/min/L: Area Under the Curve during 90 minutes dissolution
# [3] = Dissolution measurement assay (apparent solubility) in FeSSIF, pH 5; conditions: FeSSIF solution (pH 5)
# Description: The method consists of adding the wished amount of powder of hybrid nanoparticles into a glass vial and then pouring in it the appropriate medium (typically FaSSIF, FeSSIF or SGF). The medium was prepared in accordance with the manufacturer's instructions. The amount of powder added depends on the wished “total PKI concentration”. […] For other experiments, the drug load was first estimated by HPLC and the amount of powder to obtain the drug concentration was calculated.
# Typically, the powder was added in a 8 mL glass bottle and 7 mL of solution was added (typically FaSSIF, FeSSIF or SGF). The glass bottle was put on a shaker (approximately 1 rotation per minute) for dissolution. Samples of 500 μl where taken after different times, and subsequently centrifuged at approximately 15000 g for 3 minutes. The resulting supernatant was then analyzed by HPLC (C18 column Eclipse, 4.6 mm×15 cm, 1 mL/min, detection at 254-400 nM. Generally samples were taken after 5, 30 and 90 min and eventually 150 min.
# A number of experiments were carried out, wherein nilotinib base or nilotinib HCl represented the protein kinase inhibitor. The experiments were carried out by measuring concentration of solubilized PKI (mg/L) after 5, 30 and 90 minutes dissolution in a solution at about pH 6.5, namely FaSSIF (Fasted State Simulated Intestinal Fluid). […] Samples of the solution were taken at various time intervals and the amount of protein kinase inhibitor was measured by the dissolution measurement assay described above.
# [4] = concentration of nilotinib HCl, FaSSIF solution (pH 6.5), 5 minutes dissolution, HCl
# [5] = concentration of nilotinib HCl, FaSSIF solution (pH 6.5), 30 minutes dissolution, HCl
# [6] = concentration of nilotinib HCl, FaSSIF solution (pH 6.5), 90 minutes dissolution, HCl
# [7] = nilotinib HCl, FaSSIF solution (pH 6.5), 30 minutes dissolution, HCl
# [8] = nilotinib HCl, FaSSIF solution (pH 6.5), HCl
structure (smiles),measurement,setting,value
"COc1cc2ncnc(Nc3ccc(F)c(Cl)c3)c2cc1OCCCN1CCOCC1 [Exp 540, gefitinib]",Initial Dissolution Rate,[1],2.2
"CNC(=O)c1cc(Oc2ccc(NC(=O)Nc3ccc(Cl)c(C(F)(F)F)c3)cc2)ccn1 [Exp 560, sorafenib tosylate]",Initial Dissolution Rate,[1],0.47
"Cc1cn(-c2cc(NC(=O)c3ccc(C)c(Nc4nccc(-c5cccnc5)n4)c3)cc(C(F)(F)F)c2)cn1 [Exp 500, nilotinib HCl]",Initial Dissolution Rate,[1],0.27
"Cc1ccc(Nc2nccc(N(C)c3ccc4c(C)n(C)nc4c3)n2)cc1S(N)(=O)=O [Exp 84, pazopanib]",Conc (mg/L) 5 min,"[2]; 5 min, pH 6.5",46.2 mg/L
same,% solubilized 30 min.,"[2]; 30 min, pH 6.5",2.4%
same,Conc (mg/L) 30 min,"[2]; 30 min, pH 6.5",24.4 mg/L
same,Conc (mg/L) 90 min,"[2]; 90 min, pH 6.5",15.0 mg/L
"C[C@@H](Oc1cc(-c2cnn(C3CCNCC3)c2)cnc1N)c1c(Cl)ccc(F)c1Cl [Exp 570, crizotinib]",Initial Dissolution Rate,[1],6.6
"Cc1cn(-c2cc(NC(=O)c3ccc(C)c(Nc4nccc(-c5cccnc5)n4)c3)cc(C(F)(F)F)c2)cn1 [Exp 41, Nilotinib HCl]",Conc (mg/L) 5 min,"[3]; concentration of nilotinib HCl, 5 minutes dissolution",0.6 mg/L
same,Conc (mg/L) 30 min,"[3]; concentration of nilotinib HCl, 30 minutes dissolution",0.9 mg/L
same,Conc (mg/L) 90 min,"[3]; concentration of nilotinib HCl, 90 minutes dissolution",0.9 mg/L
same,% solubilized 30 min.,"[3]; nilotinib HCl, 30 minutes dissolution",0.18%
same,AUC/90 min Mg/min/L,"[3]; nilotinib HCl, Area Under the Curve during 90 minutes dissolution",74.3 Mg/min/L
"CNC(=O)c1cc(Oc2ccc(NC(=O)Nc3ccc(Cl)c(C(F)(F)F)c3)cc2)ccn1 [Exp 142, sorafenib tosylate]",Conc (mg/L) 3 min,[2]; pH 6.5,59.1 mg/L
same,% solubilized 40 min.,"[2]; 40 min, pH 6.5",34.4%
same,Conc (mg/L) 40 min,"[2]; 40 min, pH 6.5",343.5 mg/L
same,Conc (mg/L) 80 min,[2]; pH 6.5,311.5 mg/L
"Cc1nc(Nc2ncc(C(=O)Nc3c(C)cccc3Cl)s2)cc(N2CCN(CCO)CC2)n1 [Exp 138, dasatinib]",Conc (mg/L) 3 min,[2]; pH 6.5,34.5 mg/L
same,Conc (mg/L) 40 min,"[2]; 40 min, pH 6.5",59.7 mg/L
same,Conc (mg/L) 80 min,[2]; pH 6.5,63.5 mg/L
same,% solubilized 40 min.,"[2]; dasatinib, 40 min dissolution, FaSSIF pH 6.5",6.0%
same,AUC/80 min,"[2]; dasatinib, during 80 min dissolution, FaSSIF pH 6.5",2396 Mg/min/L
"Cc1cn(-c2cc(NC(=O)c3ccc(C)c(Nc4nccc(-c5cccnc5)n4)c3)cc(C(F)(F)F)c2)cn1 [Exp 1, Nilotinib HCl]",Conc (mg/L) 5 min,[2]; [4],0.1 mg/L
same,Conc (mg/L) 30 min,[2]; [5],0.2 mg/L
same,Conc (mg/L) 90 min,[2]; [6],0.1 mg/L
same,% solubilized 30 min.,[2]; [7],0.20%
same,AUC/90 min Mg/min/L,[2]; [8],13.0 Mg/min/L
"Cc1cn(-c2cc(NC(=O)c3ccc(C)c(Nc4nccc(-c5cccnc5)n4)c3)cc(C(F)(F)F)c2)cn1 [Exp 4, Nilotinib Base]",Conc (mg/L) 5 min,"[2]; concentration of nilotinib HCl, FaSSIF solution (pH 6.5), 5 minutes dissolution",0.6 mg/L
same,Conc (mg/L) 30 min,"[2]; concentration of nilotinib HCl, FaSSIF solution (pH 6.5), 30 minutes dissolution",0.5 mg/L
same,Conc (mg/L) 90 min,"[2]; concentration of nilotinib HCl, FaSSIF solution (pH 6.5), 90 minutes dissolution",0.2 mg/L
same,% solubilized 30 min.,"[2]; nilotinib HCl, FaSSIF solution (pH 6.5), 30 minutes dissolution",0.50%
same,AUC/90 min Mg/min/L,"[2]; nilotinib HCl, FaSSIF solution (pH 6.5)",36.5 Mg/min/L
"Cc1cn(-c2cc(NC(=O)c3ccc(C)c(Nc4nccc(-c5cccnc5)n4)c3)cc(C(F)(F)F)c2)cn1 [Exp 3, Nilotinib HCl]",Conc (mg/L) 5 min,[2]; [4],0.2 mg/L
same,Conc (mg/L) 30 min,[2]; [5],0.3 mg/L
same,Conc (mg/L) 90 min,[2]; [6],0.2 mg/L
same,% solubilized 30 min.,[2]; [7],0.03%
same,AUC/90 min Mg/min/L,[2]; [8],21.8 Mg/min/L
